*1 amine or outer side, *2 acyl side, *3 side chain or, on linkers, in order; H or OH if unused. Where a SMILES comes first, the peptide text is derived from it. Bridges are numbered along the chain shown (N, C = ends). [ ]: non-standard residue; d: D form. The star is where a group is joined. ξ: configuration not given here. X9 = CSCC[C@H](NC(=O)c1ccc(CNC(=O)CN2CCN(CC(=O)O)CCN(CC(=O)O)CCN(CC(=O)O)CC2)cc1)C(=O)N[C@H](C(=O)N[C@@H](CCCCN*)C(=O)O)C(C)C; X7 = O=C(O)CN1CCN(CC(=O)O)CCN(CC(=O)N[C@H]2CC[C@H](CC(=O)*)CC2)CCN(CC(=O)O)CC1; X10 = O=C(O)CN1CCN(CC(=O)O)CCN(CC(=O)NC2CCC(CC(=O)*)CC2)CCN(CC(=O)O)CC1; Ala(piperidin-4-yl) = O=C([C@H](CC1CCN([*:3])CC1)N[*:1])[*:2]; DOTA = O=C(O)CN1CCN(CC(=O)O)CCN(CC(=O)*)CCN(CC(=O)O)CC1; Trp(7-OMe) = COc1cccc2c(C[C@H](N)C(=O)O)c[nH]c12; Trp(7-Me) = Cc1cccc2c(C[C@H](N)C(=O)O)c[nH]c12; 2Nal = N[C@@H](Cc1ccc2ccccc2c1)C(=O)O; tBuAla = CC(C)(C)C[C@H](N)C(=O)O; Chg = N[C@H](C(=O)O)C1CCCCC1; NMeNle = CCCC[C@H](NC)C(=O)O; αMeP = C[C@@]1(C(=O)O)CCCN1; ξN = NC(=O)CC(N)C(=O)O; CH2 = C([*:1])[*:2]; ξP = O=C(O)C1CCCN1
Target: T1, DLL3 (Homo sapiens, UniProt Q9NYJ7)
T1 sequence (Q9NYJ7 27-618): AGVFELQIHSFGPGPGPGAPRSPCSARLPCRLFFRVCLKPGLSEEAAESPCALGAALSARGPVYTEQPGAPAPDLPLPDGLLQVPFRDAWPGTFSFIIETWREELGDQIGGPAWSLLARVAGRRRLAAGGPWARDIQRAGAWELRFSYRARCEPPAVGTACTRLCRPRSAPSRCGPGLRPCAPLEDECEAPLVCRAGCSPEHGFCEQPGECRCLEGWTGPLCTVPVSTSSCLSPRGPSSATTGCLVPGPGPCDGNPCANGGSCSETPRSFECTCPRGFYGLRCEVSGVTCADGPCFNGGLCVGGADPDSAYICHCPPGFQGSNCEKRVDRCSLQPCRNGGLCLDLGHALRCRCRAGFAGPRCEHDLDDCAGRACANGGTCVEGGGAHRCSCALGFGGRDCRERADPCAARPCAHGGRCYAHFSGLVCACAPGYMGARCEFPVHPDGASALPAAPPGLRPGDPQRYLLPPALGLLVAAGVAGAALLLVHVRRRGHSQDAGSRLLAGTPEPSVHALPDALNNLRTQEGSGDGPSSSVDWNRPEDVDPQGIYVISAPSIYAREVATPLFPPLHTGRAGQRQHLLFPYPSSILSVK
Assay: SPR KD, biotinylated human DLL3 on streptavidin chip (Table 8)
Parameters: biotin (biotinylated)
Details: biotinylated human DLL3 on streptavidin sensor chip, 25° C., 1:1 binding model; read-out: SPR KD
Description: Biotinylated target ligand human DLL3 was immobilized on a streptavidin sensor chip. A reference surface was set up for nonspecific binding and refractive index changes. […] Sensorgram curves were fitted with 1:1 binding model, and affinity and kinetic parameters were obtained using Biacore Insight evaluation 4.0. software.

Kd, < 1 nM:
CC(=O)N[C@H](Cc1c[nH]c2ccccc12)C(=O)N[C@@H](C(=O)N[C@@H](CC(C)(C)C)C(=O)N[C@H]1CSCSC[C@H](C(=O)N[C@@H](Cc2c[nH]c3ccccc23)C(=O)N2CCC[C@H]2C(N)=O)NC(=O)[C@H](CC(=O)O)NC(=O)[C@H](CCCCNC(=O)CN2CCN(CC(=O)O)CCN(CC(=O)O)CCN(CC(=O)O)CC2)NC(=O)[C@H](Cc2ccc3ccccc3c2)NC(=O)[C@H](CC(N)=O)NC(=O)[C@H](CC(N)=O)NC1=O)[C@H](C)O [compound 424, Ac-W-T-(t-Bu-Ala)-C(1)-N-N-(2Nal)-Lys(DOTA)-D-[D-Cys(1)]-W-P-CONH2] (Ac-[dW][dT][tBuAla]CNN[2Nal]K(DOTA)D[dC]WP-NH2; linker 4-10 via CH2)
CSCC[C@H](NC(=O)c1ccc(CNC(=O)CN2CCN(CC(=O)O)CCN(CC(=O)O)CCN(CC(=O)O)CC2)cc1)C(=O)N[C@H](C(=O)N[C@@H](CCCCNC(=O)CC[C@@H]1NC(=O)[C@H](Cc2ccc3ccccc3c2)NC(=O)[C@H](CC(N)=O)NC(=O)[C@H](CC2CCNCC2)NC(=O)[C@@H](NC(=O)[C@@H](NC(=O)[C@@H](NC(=O)[C@H](Cc2c[nH]c3ccccc23)NC(C)=O)[C@@H](C)O)C2CCCCC2)CSCSC[C@@H](C(=O)N[C@@H](Cc2c[nH]c3ccccc23)C(=O)N2CCC[C@H]2C(N)=O)NC(=O)[C@H](CC(=O)O)NC1=O)C(=O)O)C(C)C [compound 425] (Ac-WT[Chg]C[Ala(piperidin-4-yl)]N[2Nal]E(X9)DCWP-NH2; linker 4-10 via CH2)
CC(=O)N[C@@H](Cc1c[nH]c2c(C)cccc12)C(=O)N[C@H](C(=O)N[C@H](C(=O)N[C@H]1CSCSC[C@@H](C(=O)N[C@@H](Cc2c[nH]c3ccccc23)C(=O)N2CCC[C@H]2C(N)=O)NC(=O)[C@H](CC(=O)O)NC(=O)[C@H](CCCCNC(=O)CN2CCN(CC(=O)O)CCN(CC(=O)O)CCN(CC(=O)O)CC2)NC(=O)[C@H](Cc2ccc3ccccc3c2)NC(=O)[C@H](CC(N)=O)NC(=O)[C@H](CC2CCNCC2)NC1=O)C1CCCCC1)[C@@H](C)O [compound 428, Ac-(7Me-Trp)-T-(Chg)-C(1)-[3-(4-piperidinyl)-Ala]-N-(2Nal)-Lys(DOTA)-D-C(1)-W-P-NH2] (Ac-[Trp(7-Me)]T[Chg]C[Ala(piperidin-4-yl)]N[2Nal]K(DOTA)DCWP-NH2; linker 4-10 via CH2)
COc1cccc2c(C[C@H](NC(C)=O)C(=O)N[C@H](C(=O)N[C@H](C(=O)N[C@H]3CSCSC[C@@H](C(=O)N[C@@H](Cc4c[nH]c5ccccc45)C(=O)N4CCCC4C(N)=O)NC(=O)[C@H](CC(=O)O)NC(=O)[C@H](CCCCNC(=O)CN4CCN(CC(=O)O)CCN(CC(=O)O)CCN(CC(=O)O)CC4)NC(=O)[C@H](Cc4ccc5ccccc5c4)NC(=O)[C@H](CC(N)=O)NC(=O)[C@H](CC4CCNCC4)NC3=O)C3CCCCC3)[C@@H](C)O)c[nH]c12 (stereo partly drawn) [compound 430, Ac-(7MeO-Trp)-T-(Chg)-C(1)-[3-(4-piperidinyl)-Ala]-N-(2Nal)-Lys(DOTA)-D-C(1)-W-P-CONH2] (Ac-[Trp(7-OMe)]T[Chg]C[Ala(piperidin-4-yl)]N[2Nal]K(DOTA)DCW[ξP]-NH2; linker 4-10 via CH2)
CCCC[C@@H](C(=O)N[C@H]1CSCSC[C@@H](C(=O)N[C@@H](Cc2c[nH]c3ccccc23)C(=O)N2CCC[C@H]2C(N)=O)NC(=O)[C@H](CC(=O)O)NC(=O)[C@H](CCCCNC(=O)CN2CCN(CC(=O)O)CCN(CC(=O)O)CCN(CC(=O)O)CC2)NC(=O)[C@H](Cc2ccc3ccccc3c2)NC(=O)[C@H](CC(N)=O)NC(=O)[C@H](CC2CCNCC2)NC1=O)N(C)C(=O)[C@@H](NC(=O)[C@H](Cc1c[nH]c2c(C)cccc12)NC(C)=O)[C@@H](C)O [compound 431, Ac-(7Me-Trp)-T-(NMe-Nle)-C(1)-[3-(4-piperidinyl)-Ala]-N-(2Nal)-Lys(DOTA)-D-C(1)-W-P-CONH2] (Ac-[Trp(7-Me)]T[NMeNle]C[Ala(piperidin-4-yl)]N[2Nal]K(DOTA)DCWP-NH2; linker 4-10 via CH2)
CC(=O)N[C@@H](Cc1c[nH]c2ccccc12)C(=O)N[C@H](C(=O)N[C@H](C(=O)N[C@H]1CSCSC[C@@H](C(=O)N[C@@H](Cc2c[nH]c3ccccc23)C(=O)N2CCC[C@H]2C(N)=O)NC(=O)[C@H](CC(=O)O)NC(=O)[C@H](CCCCNC(=O)CC2CCC(NC(=O)CN3CCN(CC(=O)O)CCN(CC(=O)O)CCN(CC(=O)O)CC3)CC2)NC(=O)[C@H](Cc2ccc3ccccc3c2)NC(=O)C(CC(N)=O)NC(=O)[C@H](CC2CCNCC2)NC1=O)C1CCCCC1)[C@@H](C)O (stereo partly drawn) [compound 432, Ac-W-T-(Chg)-C(1)-[3-(4-piperidinyl)-Ala]-N-(2Nal)-Lys(Chx-DOTA)-D-C(1)-W-P-CONH2] (Ac-WT[Chg]C[Ala(piperidin-4-yl)][ξN][2Nal]K(X10)DCWP-NH2; linker 4-10 via CH2)
CC(=O)N[C@@H](Cc1c[nH]c2ccccc12)C(=O)N[C@H](C(=O)N[C@@H](CC(C)(C)C)C(=O)N[C@H]1CSCSC[C@@H](C(=O)N[C@@H](Cc2c[nH]c3ccccc23)C(=O)N2CCC[C@H]2C(N)=O)NC(=O)[C@H](CC(=O)O)NC(=O)[C@H](CCCCNC(=O)C[C@H]2CC[C@H](NC(=O)CN3CCN(CC(=O)O)CCN(CC(=O)O)CCN(CC(=O)O)CC3)CC2)NC(=O)[C@H](Cc2ccc3ccccc3c2)NC(=O)[C@H](CC(N)=O)NC(=O)[C@H](CC2CCNCC2)NC1=O)[C@@H](C)O [compound 434, Ac-W-T-(t-Bu-Ala)-C(3)-[3-(4-piperidinyl)-Ala]-N-(2Nal)-Lys(Chx-DOTA)-D-C(3)-W-P-NH2] (Ac-WT[tBuAla]C[Ala(piperidin-4-yl)]N[2Nal]K(X7)DCWP-NH2; linker 4-10 via CH2)
CC(=O)N[C@@H](Cc1c[nH]c2ccccc12)C(=O)N[C@H](C(=O)N[C@@H](CC(C)(C)C)C(=O)N[C@H]1CSCSC[C@@H](C(=O)N[C@@H](Cc2c[nH]c3ccccc23)C(=O)N2CCC[C@@]2(C)C(=O)O)NC(=O)[C@H](CC(=O)O)NC(=O)[C@H](CCCCNC(=O)CN2CCN(CC(=O)O)CCN(CC(=O)O)CCN(CC(=O)O)CC2)NC(=O)[C@H](Cc2ccc3ccccc3c2)NC(=O)[C@H](CC(N)=O)NC(=O)[C@H](CC2CCNCC2)NC1=O)[C@@H](C)O [compound 436, Ac-W-T-(t-Bu-Ala)-C(1)-[3-(4-piperidinyl)-Ala]-N-(2Nal)-Lys(DOTA)-D-C(1)-W-(aMe-P)-COOH] (Ac-WT[tBuAla]C[Ala(piperidin-4-yl)]N[2Nal]K(DOTA)DCW[αMeP]-OH; linker 4-10 via CH2)

Kd, 100 to 300 nM:
CC(=O)N[C@H](Cc1c[nH]c2ccccc12)C(=O)N[C@@H](C(=O)N[C@@H](CC(C)(C)C)C(=O)N[C@@H]1CSCSC[C@@H](C(=O)N[C@@H](Cc2c[nH]c3ccccc23)C(=O)N2CCC[C@H]2C(N)=O)NC(=O)[C@H](CC(=O)O)NC(=O)[C@H](CCCCNC(=O)CN2CCN(CC(=O)O)CCN(CC(=O)O)CCN(CC(=O)O)CC2)NC(=O)[C@H](Cc2ccc3ccccc3c2)NC(=O)[C@H](CC(N)=O)NC(=O)[C@H](CC(N)=O)NC1=O)[C@H](C)O [compound 423, Ac-W-T-(t-Bu-Ala)-[D-Cys(1)]-N-N-(2Nal)-Lys(DOTA)-D-C(1)-W-P-CONH2] (Ac-[dW][dT][tBuAla][dC]NN[2Nal]K(DOTA)DCWP-NH2; linker 4-10 via CH2)
